Source: ChEMBL document CHEMBL1201862, “PubChem BioAssay data set” (2004)
Activity calls are given as the source filed them.

Tests used:
[1] = test system: Candida albicans; assay: Candida growth inhibition combined with fluconazole – CaCi-2 strain, Alamar Blue, dry powder, set 3, dose response (AID 488907); format: functional, organism-based
[2] = test system: Candida albicans; assay: fluconazole-resistant Candida strain growth inhibitors – CaCi-8 strain, dry powder, set 4, dose response (AID 488950); format: functional, organism-based
[3] = test system: Candida albicans; assay: C. albicans growth inhibition with fluconazole – CaCi-2 strain, Alamar Blue, dry powder, set 4, dose response (AID 488943); format: functional, organism-based
[4] = test system: Candida albicans; assay: resistant Candida growth with fluconazole co-treatment – CaCi-8 strain, Alamar Blue, dry powder, set 3, dose response (AID 488905); format: functional, organism-based
[5] = test system: Escherichia coli; assay: microbe, parasite or virus in culture
[6] = target: Hexokinase-1 (Homo sapiens, UniProt P19367); assay: hexokinase 1 activity inhibitors, potency – biochemical, set 2, resazurin fluorescence coupled readout, selectivity assay for HKDC1 inhibitor project, SAR follow-up (AID 588356); format: functional
Hexokinase-1, sequence (P19367 whole entry): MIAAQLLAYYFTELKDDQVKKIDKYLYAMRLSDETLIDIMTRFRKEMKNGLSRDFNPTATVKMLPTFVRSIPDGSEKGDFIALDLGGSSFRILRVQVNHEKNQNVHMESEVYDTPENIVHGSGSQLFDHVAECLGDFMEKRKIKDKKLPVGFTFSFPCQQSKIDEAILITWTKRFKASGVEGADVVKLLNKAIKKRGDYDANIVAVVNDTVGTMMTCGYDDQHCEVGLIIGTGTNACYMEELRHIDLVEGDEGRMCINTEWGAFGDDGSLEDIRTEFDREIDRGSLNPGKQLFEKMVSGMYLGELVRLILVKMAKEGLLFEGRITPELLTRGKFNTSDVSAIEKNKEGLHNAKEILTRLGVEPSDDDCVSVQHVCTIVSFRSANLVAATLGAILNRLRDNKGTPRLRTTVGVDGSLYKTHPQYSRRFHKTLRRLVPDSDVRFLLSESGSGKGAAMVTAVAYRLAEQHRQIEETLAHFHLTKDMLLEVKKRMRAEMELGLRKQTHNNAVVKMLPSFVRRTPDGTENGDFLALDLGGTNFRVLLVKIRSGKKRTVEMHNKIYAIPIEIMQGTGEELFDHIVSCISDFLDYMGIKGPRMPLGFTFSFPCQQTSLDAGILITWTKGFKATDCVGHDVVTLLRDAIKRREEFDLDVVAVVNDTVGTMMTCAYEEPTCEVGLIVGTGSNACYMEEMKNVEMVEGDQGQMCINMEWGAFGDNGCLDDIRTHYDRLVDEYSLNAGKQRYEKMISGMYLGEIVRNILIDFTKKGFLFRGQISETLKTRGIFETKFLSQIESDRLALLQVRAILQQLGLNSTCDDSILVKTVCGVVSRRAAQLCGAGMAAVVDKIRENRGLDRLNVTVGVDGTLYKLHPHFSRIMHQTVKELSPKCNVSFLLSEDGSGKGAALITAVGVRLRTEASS

[7] = target: T1, Hexokinase HKDC1 (Homo sapiens, UniProt Q2TB90); assay: analog inhibition of human HKDC1 activity – biochemical, set 2, SAR follow-up (AID 588355); format: functional
T1 sequence (Q2TB90 whole entry): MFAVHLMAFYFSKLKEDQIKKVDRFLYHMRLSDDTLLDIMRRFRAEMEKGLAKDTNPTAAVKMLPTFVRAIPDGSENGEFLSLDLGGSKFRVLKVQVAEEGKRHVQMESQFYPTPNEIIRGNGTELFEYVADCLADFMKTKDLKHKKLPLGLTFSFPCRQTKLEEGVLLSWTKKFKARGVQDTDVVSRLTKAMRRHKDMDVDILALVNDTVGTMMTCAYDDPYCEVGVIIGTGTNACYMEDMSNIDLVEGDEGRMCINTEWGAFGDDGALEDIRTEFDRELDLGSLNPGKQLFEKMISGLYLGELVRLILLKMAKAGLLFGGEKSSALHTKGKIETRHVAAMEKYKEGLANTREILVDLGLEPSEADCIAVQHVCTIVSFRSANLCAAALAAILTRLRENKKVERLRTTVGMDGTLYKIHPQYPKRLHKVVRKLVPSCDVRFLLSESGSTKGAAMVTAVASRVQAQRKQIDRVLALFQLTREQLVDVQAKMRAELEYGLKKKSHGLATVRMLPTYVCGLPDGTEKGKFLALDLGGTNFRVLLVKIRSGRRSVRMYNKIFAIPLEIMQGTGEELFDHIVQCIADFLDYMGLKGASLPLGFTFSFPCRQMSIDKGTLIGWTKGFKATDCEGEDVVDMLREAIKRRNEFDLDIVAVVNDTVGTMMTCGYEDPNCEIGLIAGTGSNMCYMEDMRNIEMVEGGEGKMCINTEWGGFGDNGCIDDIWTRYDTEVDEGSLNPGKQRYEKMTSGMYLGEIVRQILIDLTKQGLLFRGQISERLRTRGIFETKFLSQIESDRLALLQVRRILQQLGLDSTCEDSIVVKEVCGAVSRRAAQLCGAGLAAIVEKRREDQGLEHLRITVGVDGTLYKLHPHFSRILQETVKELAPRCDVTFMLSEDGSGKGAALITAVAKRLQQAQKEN

[8] = target: Mitochondrial peptide methionine sulfoxide reductase (Bos taurus, UniProt P54149); assay: Absorbance-based biochemical high throughput dose response assay for activators of Methionine sulfoxide reductase A (MsrA).; format: functional
Mitochondrial peptide methionine sulfoxide reductase, sequence (P54149 whole entry): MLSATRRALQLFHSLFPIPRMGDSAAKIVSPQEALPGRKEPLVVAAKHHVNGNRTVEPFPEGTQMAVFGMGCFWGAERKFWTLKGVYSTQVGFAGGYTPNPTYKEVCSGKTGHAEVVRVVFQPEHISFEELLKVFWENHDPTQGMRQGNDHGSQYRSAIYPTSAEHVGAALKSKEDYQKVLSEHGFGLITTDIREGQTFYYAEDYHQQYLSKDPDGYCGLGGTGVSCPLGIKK

[9] = target: Type-1 angiotensin II receptor (Homo sapiens, UniProt P30556); assay: antagonism of angiotensin II type 1 receptor – cell-based, uHTS hits, selectivity assay for APJ receptor antagonist project, dose response (AID 463214); format: functional;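 note: antagonist potency against angiotensin II stimulated AT1 response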
Type-1 angiotensin II receptor, sequence (P30556 whole entry): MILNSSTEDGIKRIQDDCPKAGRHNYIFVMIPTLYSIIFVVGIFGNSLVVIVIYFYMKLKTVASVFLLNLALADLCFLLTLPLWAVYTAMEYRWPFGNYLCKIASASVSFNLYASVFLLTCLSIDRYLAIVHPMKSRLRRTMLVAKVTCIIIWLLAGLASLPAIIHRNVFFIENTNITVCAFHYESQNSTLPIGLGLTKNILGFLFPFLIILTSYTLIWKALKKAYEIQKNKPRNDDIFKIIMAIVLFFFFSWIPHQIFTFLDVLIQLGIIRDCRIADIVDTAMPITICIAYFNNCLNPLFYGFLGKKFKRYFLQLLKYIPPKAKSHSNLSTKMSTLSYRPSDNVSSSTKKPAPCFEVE

[10] = target: Beta-galactosidase (Escherichia coli, UniProt Q8VNN2); assay: PubChem AID 485352; format: functional
[11] = target: Cytochrome P450 2C9 (Homo sapiens, UniProt P11712)
Cytochrome P450 2C9, sequence (P11712 whole entry): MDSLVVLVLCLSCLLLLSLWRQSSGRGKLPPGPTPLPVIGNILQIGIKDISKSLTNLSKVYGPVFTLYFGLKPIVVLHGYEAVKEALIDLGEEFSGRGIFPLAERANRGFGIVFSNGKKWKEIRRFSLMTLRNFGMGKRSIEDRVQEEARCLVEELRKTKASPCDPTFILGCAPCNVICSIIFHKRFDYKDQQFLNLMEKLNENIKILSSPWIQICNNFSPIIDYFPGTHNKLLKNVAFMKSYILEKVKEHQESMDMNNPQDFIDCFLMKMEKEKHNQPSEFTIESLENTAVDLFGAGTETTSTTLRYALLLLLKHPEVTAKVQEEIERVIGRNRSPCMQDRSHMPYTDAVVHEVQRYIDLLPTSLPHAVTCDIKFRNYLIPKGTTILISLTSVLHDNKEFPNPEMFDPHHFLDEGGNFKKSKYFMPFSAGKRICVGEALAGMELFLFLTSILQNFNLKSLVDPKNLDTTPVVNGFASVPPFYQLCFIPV

[12] = target: T2, Ubiquitin-conjugating enzyme E2 N (Homo sapiens, UniProt P61088); format: functional;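 note: Dose-response confirmation in a TR-FRET assay detecting UBC13-driven polyubiquitin chain formation, inhibition measured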
T2 sequence (P61088 whole entry): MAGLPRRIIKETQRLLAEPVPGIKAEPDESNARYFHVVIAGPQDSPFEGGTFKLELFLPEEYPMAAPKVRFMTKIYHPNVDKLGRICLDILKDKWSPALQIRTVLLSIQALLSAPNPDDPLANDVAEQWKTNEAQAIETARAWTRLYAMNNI

[13] = target: T3, Cytochrome P450 1A2 (Homo sapiens, UniProt P05177);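 note: PubChem cytochrome P450 panel assay, CYP1A2 panel member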
T3 sequence (P05177 whole entry): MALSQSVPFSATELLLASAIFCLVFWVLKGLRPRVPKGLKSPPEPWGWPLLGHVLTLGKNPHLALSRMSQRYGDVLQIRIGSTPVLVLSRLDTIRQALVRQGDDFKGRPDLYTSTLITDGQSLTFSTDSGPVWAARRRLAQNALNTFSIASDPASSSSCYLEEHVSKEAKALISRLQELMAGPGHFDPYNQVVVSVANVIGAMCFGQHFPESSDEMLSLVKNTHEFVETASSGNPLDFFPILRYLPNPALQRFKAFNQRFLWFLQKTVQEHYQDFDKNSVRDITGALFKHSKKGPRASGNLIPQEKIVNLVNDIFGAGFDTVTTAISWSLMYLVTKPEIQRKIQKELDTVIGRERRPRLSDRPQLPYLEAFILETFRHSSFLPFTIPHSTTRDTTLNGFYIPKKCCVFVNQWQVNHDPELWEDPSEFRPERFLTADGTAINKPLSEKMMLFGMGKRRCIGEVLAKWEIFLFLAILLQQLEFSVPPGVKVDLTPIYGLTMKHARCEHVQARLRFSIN

[14] = target: Cytochrome P450 2C19 (Homo sapiens, UniProt P33261); assay: Cytochrome panel assay with activity outcomes. Panel member name: p450-cyp2c19 Compounds with AC50 equal or less than 10 uM are considered active; format: functional
Cytochrome P450 2C19, sequence (P33261 whole entry): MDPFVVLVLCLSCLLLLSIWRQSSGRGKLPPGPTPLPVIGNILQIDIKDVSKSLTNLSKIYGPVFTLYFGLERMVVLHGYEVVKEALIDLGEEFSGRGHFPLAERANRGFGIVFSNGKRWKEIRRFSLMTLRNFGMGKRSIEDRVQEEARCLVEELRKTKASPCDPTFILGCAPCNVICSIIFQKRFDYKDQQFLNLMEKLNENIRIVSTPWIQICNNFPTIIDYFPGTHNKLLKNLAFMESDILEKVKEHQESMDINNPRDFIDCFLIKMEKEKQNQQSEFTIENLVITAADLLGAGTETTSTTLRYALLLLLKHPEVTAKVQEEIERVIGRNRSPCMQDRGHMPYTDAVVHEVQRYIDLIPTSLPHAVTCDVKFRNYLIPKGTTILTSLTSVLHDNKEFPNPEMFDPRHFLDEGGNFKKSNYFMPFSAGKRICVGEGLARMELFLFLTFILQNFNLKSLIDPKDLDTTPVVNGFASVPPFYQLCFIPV

[15] = target: Phospholipase D1 (Homo sapiens, UniProt Q13393); assay: cellular phospholipase D1 inhibition IC50 – cell-based, dose response (AID 602151); format: functional;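 note: cellular PLD1 assay in Calu-1 cells stimulated with PMA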
[16] = target: Phospholipase D2 (Homo sapiens, UniProt O14939); assay: cellular phospholipase D2 inhibition IC50 – cell-based, dose response (AID 602147); format: functional;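 note: cellular assay in HEK293 cells overexpressing GFP-tagged PLD2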
Phospholipase D2, sequence (O14939 whole entry): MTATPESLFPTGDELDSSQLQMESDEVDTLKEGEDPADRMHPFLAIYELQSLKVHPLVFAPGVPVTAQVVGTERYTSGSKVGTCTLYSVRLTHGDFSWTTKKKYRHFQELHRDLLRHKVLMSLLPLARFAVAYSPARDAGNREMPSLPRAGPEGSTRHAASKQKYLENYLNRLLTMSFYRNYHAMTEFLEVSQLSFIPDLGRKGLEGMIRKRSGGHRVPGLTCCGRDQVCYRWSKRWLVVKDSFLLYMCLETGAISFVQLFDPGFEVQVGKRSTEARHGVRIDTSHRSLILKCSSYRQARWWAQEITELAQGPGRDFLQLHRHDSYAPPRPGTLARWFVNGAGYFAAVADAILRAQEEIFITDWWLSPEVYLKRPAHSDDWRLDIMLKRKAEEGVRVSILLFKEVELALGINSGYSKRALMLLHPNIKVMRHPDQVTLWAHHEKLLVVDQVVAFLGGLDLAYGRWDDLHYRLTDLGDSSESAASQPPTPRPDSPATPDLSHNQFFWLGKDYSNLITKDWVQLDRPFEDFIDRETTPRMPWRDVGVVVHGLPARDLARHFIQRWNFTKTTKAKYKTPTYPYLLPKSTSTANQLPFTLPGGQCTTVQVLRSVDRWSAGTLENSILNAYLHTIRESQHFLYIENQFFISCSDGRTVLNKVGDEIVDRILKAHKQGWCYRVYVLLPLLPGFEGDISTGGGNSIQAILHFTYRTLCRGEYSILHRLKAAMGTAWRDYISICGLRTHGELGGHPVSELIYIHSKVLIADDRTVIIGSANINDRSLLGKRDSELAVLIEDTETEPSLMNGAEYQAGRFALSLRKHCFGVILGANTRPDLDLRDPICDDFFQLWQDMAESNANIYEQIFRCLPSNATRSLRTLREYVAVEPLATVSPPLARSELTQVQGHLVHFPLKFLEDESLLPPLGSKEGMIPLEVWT

[17] = target: Neuropeptide Y receptor type 1 (Homo sapiens, UniProt P25929); assay: IC50 of human NPY-Y1 blockers – cell-based, dose response (AID 1277); format: functional
Neuropeptide Y receptor type 1, sequence (P25929 whole entry): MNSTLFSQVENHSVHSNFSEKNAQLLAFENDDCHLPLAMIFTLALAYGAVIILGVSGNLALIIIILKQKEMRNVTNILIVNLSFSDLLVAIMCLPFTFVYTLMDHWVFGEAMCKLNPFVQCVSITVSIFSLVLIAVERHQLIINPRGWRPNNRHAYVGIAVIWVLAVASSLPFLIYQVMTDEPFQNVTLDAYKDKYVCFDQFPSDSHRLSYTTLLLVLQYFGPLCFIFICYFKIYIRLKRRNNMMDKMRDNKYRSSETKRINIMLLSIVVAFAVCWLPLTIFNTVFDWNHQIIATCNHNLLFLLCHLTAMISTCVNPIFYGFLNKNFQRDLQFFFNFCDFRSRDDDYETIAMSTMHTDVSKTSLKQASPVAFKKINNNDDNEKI

[18] = test system: Jurkat; assay: blockers of NF-kB activation in T cells – Jurkat, luciferase reporter, luminescence, B- and T-cell, dose response (AID 489004); format: functional, cell-based; conditions: Homo sapiens;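 note: NF-kB luciferase reporter Jurkat cells stimulated with PMA plus ionomycin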
[19] = HEK-293T viability loss, compound-treated – cell-based, uHTS hits, cytotoxicity control for B/T-cell NF-kB inhibitor project, dose response (AID 489019); format: functional;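 note: IC50 reflects cytotoxicity as loss of cell viability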
[20] = test system: INS1; assay: INS-1E survival protection against cytokine death – cell-based, luminescence, retest, dose response (AID 449756); format: functional; conditions: Rattus norvegicus;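 note: cell death triggered by IL-1 beta plus TNF-alpha plus IFN-gamma mixture; protective hits raise ATP signal compared with cytokine alone wells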
[21] = target: Neuropeptide Y receptor type 2 (Homo sapiens, UniProt P49146); assay: IC50 for human NPY-Y2 blockade – cell-based, counter-screen for NPY-Y1 antagonist project, dose response (AID 1278); format: functional
Neuropeptide Y receptor type 2, sequence (P49146 whole entry): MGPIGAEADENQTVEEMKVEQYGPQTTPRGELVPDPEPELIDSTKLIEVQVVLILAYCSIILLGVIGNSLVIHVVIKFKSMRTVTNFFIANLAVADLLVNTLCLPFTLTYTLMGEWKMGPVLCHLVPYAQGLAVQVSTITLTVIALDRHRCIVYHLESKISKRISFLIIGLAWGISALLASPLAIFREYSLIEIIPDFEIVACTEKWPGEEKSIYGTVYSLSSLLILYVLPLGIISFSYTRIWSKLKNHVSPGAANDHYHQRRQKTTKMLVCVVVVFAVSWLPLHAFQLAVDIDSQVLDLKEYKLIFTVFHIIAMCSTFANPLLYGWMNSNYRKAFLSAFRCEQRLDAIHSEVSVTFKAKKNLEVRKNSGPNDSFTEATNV

[22] = test system: A-375; assay: proliferation inhibition in MITF-low A375 cells – cell-based, cherry-pick samples, set 2, counter-screen for MITF modulator project, dose response (AID 540335); format: functional; conditions: Homo sapiens
[23] = test system: A-375; assay: MITF: Counter assay: A375 proliferation Measured in Cell-Based System Using Plate Reader - 2084-03_Inhibitor_Dose_DryPowder_Activity. [Related pubchem assays (depositor defined):AID488944]; format: functional; conditions: Homo sapiens
[24] = target: sn-1-specific diacylglycerol lipase ABHD11 (Mus musculus, UniProt Q8K4F5); assay: Late stage assay provider results from the probe development effort to identify inhibitors of LYPLA1: fluorescence-based cell-based gel-based Activity-Based Protein Profiling (ABPP) IC50 for anti-target ABHD11. [Related pubchem assays (depositor defined):AID2174, AID2177, AID2202, AID2203, AID2232, AID2233, AID493105, AID493108, AID493109, AID493110, AID493111, AID493154, AID493161, AID504892]; format: functional
sn-1-specific diacylglycerol lipase ABHD11, sequence (Q8K4F5 whole entry): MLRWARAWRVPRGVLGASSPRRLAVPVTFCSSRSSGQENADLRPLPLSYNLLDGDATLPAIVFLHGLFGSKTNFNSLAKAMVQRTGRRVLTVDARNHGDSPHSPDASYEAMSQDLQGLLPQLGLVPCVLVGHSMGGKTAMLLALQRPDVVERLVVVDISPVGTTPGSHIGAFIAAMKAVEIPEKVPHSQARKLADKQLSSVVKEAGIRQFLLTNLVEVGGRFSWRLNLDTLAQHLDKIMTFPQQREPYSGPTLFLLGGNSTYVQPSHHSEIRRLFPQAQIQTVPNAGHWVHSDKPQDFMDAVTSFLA

[25] = test system: Streptococcus sp. 'group A'; assay: Streptococcus pyogenes SK(-)GAS viability under kanamycin – luminescence, BacTiterGlo, confirmation, counter-screen for streptokinase expression inhibitor project, dose response (AID 1900); format: functional, organism-based
[26] = Trypanosoma cruzi growth suppression in host cells – NIH3T3 host cells, beta-gal luminescence, confirmation (AID 2044); format: functional, cell-based;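 note: intracellular parasites grown in NIH/3T3 mouse fibroblasts as host cells; luminescent beta-galactosidase reporter signal from transgenic T. cruzi replicating inside host cells; inhibitors lower the luminescence signal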
[27] = target: T4, Streptokinase A (Streptococcus pyogenes serotype M1, UniProt P10520); assay: viability-normalized secreted streptokinase activity reduction – plasminogen activation absorbance, OD405, dose response (AID 1914); format: functional, Streptococcus pyogenes M1 GAS;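 note: secreted streptokinase activity via plasminogen activation per viability signal from cell pellet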
T4 sequence (P10520 whole entry): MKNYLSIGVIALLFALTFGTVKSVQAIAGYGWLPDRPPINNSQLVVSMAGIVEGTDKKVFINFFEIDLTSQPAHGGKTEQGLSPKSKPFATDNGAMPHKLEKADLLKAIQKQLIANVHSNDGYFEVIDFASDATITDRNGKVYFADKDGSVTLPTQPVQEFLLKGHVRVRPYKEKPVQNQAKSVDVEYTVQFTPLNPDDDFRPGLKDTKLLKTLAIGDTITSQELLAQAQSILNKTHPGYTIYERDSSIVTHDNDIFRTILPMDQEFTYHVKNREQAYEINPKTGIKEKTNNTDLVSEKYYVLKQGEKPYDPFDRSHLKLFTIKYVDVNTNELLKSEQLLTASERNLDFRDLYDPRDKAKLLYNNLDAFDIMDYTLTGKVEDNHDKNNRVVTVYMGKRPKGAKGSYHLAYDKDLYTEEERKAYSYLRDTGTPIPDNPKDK

[28] = NIH3T3 cell viability loss – ATP luminescence, mouse fibroblasts, counter-screen, dose response (AID 2010); format: functional, cell-based;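 note: cells exposed to compound for about 90 hours before reading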
[29] = target: Latent membrane protein 1 (Human herpesvirus 4 (strain B95-8), UniProt P03230); assay: LMP1 TES1 pathway selectivity over dsRED control – imaging, HEK293T, dual-color eGFP/dsRED, cherry-picks, selectivity assay for LMP1 NF-kB inhibitor project, dose response (AID 588398); format: functional, cell-based
Latent membrane protein 1, sequence (P03230 whole entry): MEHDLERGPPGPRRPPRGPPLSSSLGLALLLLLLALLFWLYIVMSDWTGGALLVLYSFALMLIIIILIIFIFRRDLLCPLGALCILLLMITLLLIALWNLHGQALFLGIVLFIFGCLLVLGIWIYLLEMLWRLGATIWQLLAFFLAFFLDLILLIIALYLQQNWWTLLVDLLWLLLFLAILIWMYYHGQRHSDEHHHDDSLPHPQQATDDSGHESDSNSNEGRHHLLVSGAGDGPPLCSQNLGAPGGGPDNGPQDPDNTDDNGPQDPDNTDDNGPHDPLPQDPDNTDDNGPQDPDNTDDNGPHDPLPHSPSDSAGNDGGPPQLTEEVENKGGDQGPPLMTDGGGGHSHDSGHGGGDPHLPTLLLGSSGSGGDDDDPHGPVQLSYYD

[30] = test system: Streptococcus; assay: GAS UMAA2166 growth inhibition – luminescence, BacTiterGlo, counter-screen for streptokinase expression inhibitor project, dose response (AID 1915); format: functional, organism-based;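 note: potency for reduction of bacterial viability or growth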
[31] = test system: HEK293; assay: EBV LMP1 TES2 canonical NF-kB signalling blockers – cell-based, HEK293, luciferase, cherry-pick, dose response (AID 588343); format: functional; conditions: Homo sapiens
[32] = alpha-synuclein stem-loop luciferase translation blockers – H4 neuroglioma cells, luminescence, confirmation (AID 1988); format: functional, cell-based
[33] = Luminescence Cell-Based Dose Response HTS to Identify Inhibitors of 5'UTR Stem-Loop Driven Prion Protein mRNA Translation in H4 Neuroglioblastoma Cells. [Related pubchem assays: 1827 (Project Summary), 1813 (Primary HTS)]; format: functional
[34] = test system: Escherichia coli; assay: microbe, parasite or virus in culture; remark: listed apart in the source
[35] = luciferase reporter signal suppression in cells – H4 neuroglioma cells, luminescence, dose response (AID 1990); format: functional, cell-based

Structure (SMILES): Cc1ccc(N2CCN(C(=O)c3ccc(Cl)cc3)CC2)nn1
- AC50 [1]: 8.19 µM (active)
- AC50 [2]: 4.41 µM (active)
- AC50 [3]: 1.64 µM (active)
- AC50 [4]: 103 µM (active)

Structure (SMILES): Cc1nnc(SCc2ccccc2CSc2nnc(C)s2)s1
- AC50 [5]: 111 µM (active)

Structure (SMILES): COc1ccc2c(c1)C(NC(C)=O)C(=O)N2Cc1ccccc1 (stereo unspecified)
- IC50 [6]: > 80 µM (inactive)
- IC50 [7]: > 80 µM (inactive)

Structure (SMILES): O=C1c2ccccc2-c2nnc(-c3ccccc3)cc21
- EC50 [8]: > 104 µM (inactive)
- IC50 [9]: 7.43 µM (active)
- EC50 [10]: > 40 µM (inactive)

Structure (SMILES): COc1cc(N)c(Cl)cc1C(=O)N[C@H]1CCN(CCCOc2ccc(F)cc2)C[C@H]1OC [REL-CISAPRIDE]
- AC50 [11]: inconclusive
- IC50 [12]: > 20 µM (inactive)
- AC50 [13]: inactive
- AC50 [14]: inactive

Structure (SMILES): C[C@@H](CN1CCC2(CC1)C(=O)NCN2c1ccc(F)c(F)c1)NC(=O)c1ccc(F)cc1
- IC50 [15]: 0.104 µM (active)
- IC50 [16]: 0.26 µM (active)

Structure (SMILES): CCN(CC)S(=O)(=O)c1ccc(Oc2ccc(S(=O)(=O)N(CC)CC)cc2)cc1
- IC50 [17]: > 35 µM (not active)
- IC50 [18]: > 80 µM (inactive)
- IC50 [19]: > 80 µM (inactive)
- AC50 [20]: 2.23 µM (active)
- IC50 [21]: > 35 µM (not active)

Structure (SMILES): Cn1c(/C(C#N)=C/c2ccc(-c3ccc(S(N)(=O)=O)cc3)o2)nc2ccccc21
- AC50 [22]: > 11 µM (active)
- AC50 [23]: > 11 µM (active)

Structure (SMILES): COCC1CCCCN1C(=O)n1ncc(C(O)(c2ccccc2)c2ccccc2)n1 (stereo unspecified)
- IC50 [24]: 0.000137 µM (active)

Structure (SMILES): CCCc1sc(N/N=C/c2ccccn2)nc1-c1ccc(Br)cc1
- EC50 [25]: 0.442 µM (active)
- EC50 [26]: 0.202 µM (active)
- EC50 [27]: > 150 µM (not active)
- EC50 [28]: 2.38 µM (active)
- AC50 [20]: 8.41 µM (active)
- AC50 [29]: 32.3 µM (active)
- EC50 [30]: 8.45 µM (active)
- AC50 [31]: 22.3 µM (active)

Structure (SMILES): O=C(O)CCCc1nc(-c2ccc(Cl)cc2)no1
- EC50 [32]: 16.2 µM (active)
- EC50 [33]: 23.1 µM (active)
- AC50 [34]: 39 µM (active)
- EC50 [35]: 27.1 µM (active)
